Results: patent US10787452B2 (Vertex Pharmaceuticals Incorporated, priority 2012, dated 2020)

Tested on: HCT116 colorectal cancer cells
Experiment: Cisplatin sensitization assay (96 h cell viability MTS);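 also: compound concentration needed to lower the Cisplatin-alone IC50 by a set fold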
Assay type: cell-based
Details: 96 h MTS, compound plus Cisplatin
Summary of the method: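 HCT116 cells were co-treated with compound and cisplatin, each in 2-fold serial dilutions from a 10 μM top final concentration, as a full matrix. After 96 h at 37 °C, 5% CO2, viability was read by MTS following a 1 h incubation with reagent.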

Q: How did the “Cisplatin Sensitization Assay” value turn out when CN(C)[C@H]1CCN(c2ccncc2NC(=O)c2c(N)nn3cc(Cl)cnc23)C[C@@H]1O [I-N-35, 2-amino-6-chloro-N-(4-((3S,4S)-4-(dimethylamino)-3-hydroxypiperidin-1-yl)pyridin-3-yl)pyrazolo[1,5-a]pyrimidine-3-carboxamide] was run?
A: Its value is “+ (Compounds with a Cisplatin sensitization value >0.2 μM but <5 μM are marked with “+.”)”.

Q: With N#CCc1cnc2c(C(=O)Nc3cnccc3N3CCOC(CN)C3)c(N)nn2c1 (stereo not drawn) [I-N-90, 2-amino-N-(4-(2-(aminomethyl)morpholino)pyridin-3-yl)-6-(cyanomethyl)pyrazolo[1,5-a]pyrimidine-3-carboxamide] as the molecule, how does the “Cisplatin Sensitization Assay” value read?
A: The value was “+ (Compounds with a Cisplatin sensitization value >0.2 μM but <5 μM are marked with “+.”)”.

Q: For Cc1ncn(C)c1-c1ccncc1NC(=O)c1c(N)nn2cc(F)cnc12 [I-C-78, 2-amino-N-(4-(1,4-dimethyl-1H-imidazol-5-yl)pyridin-3-yl)-6-fluoropyrazolo[1,5-a]pyrimidine-3-carboxamide], which “Cisplatin Sensitization Assay” value is on record?
A: Its value is “++ (Compounds with a Cisplatin sensitization value >0.02 μM but <0.2 μM are marked with “++.”)”.

Q: Which “Cisplatin Sensitization Assay” value does the source give for Cn1cncc1-c1ccncc1NC(=O)c1c(N)nn2cc(F)cnc12 [I-C-56, 2-amino-6-fluoro-N-(4-(1-methyl-1H-imidazol-5-yl)pyridin-3-yl)pyrazolo[1,5-a]pyrimidine-3-carboxamide] here?
A: Its value is “+++ (Compounds with a Cisplatin sensitization value of <0.02 μM are marked with “+++.”)”.

Q: How did the “Cisplatin Sensitization Assay” value turn out when CC(=O)N1CCN(c2c(F)cncc2NC(=O)c2c(N)nn3cc(F)cnc23)CC1 [I-N-275, N-(4-(4-acetylpiperazin-1-yl)-5-fluoropyridin-3-yl)-2-amino-6-fluoropyrazolo[1,5-a]pyrimidine-3-carboxamide] was run?
A: Its value is “+++ (Compounds with a Cisplatin sensitization value of <0.02 μM are marked with “+++.”)”.

Q: For CN1CCN(C(=O)C2CCN(c3c(F)cncc3NC(=O)c3c(N)nn4cc(F)cnc34)CC2)C2CC21 (stereo not drawn) [I-G-65, 2-amino-6-fluoro-N-(5-fluoro-4-(4-(5-methyl-2,5-diazabicyclo[4.1.0]heptane-2-carbonyl)piperidin-1-yl)pyridin-3-yl)pyrazolo[1,5-a]pyrimidine-3-carboxamide], which “Cisplatin Sensitization Assay” value is on record?
A: The value was “+++ (Compounds with a Cisplatin sensitization value of <0.02 μM are marked with “+++.”)”.

Q: N#CCc1cnc2c(C(=O)Nc3cnccc3N3CCOCC3)c(N)nn2c1 [I-N-81, 2-amino-6-(cyanomethyl)-N-(4-morpholinopyridin-3-yl)pyrazolo[1,5-a]pyrimidine-3-carboxamide] was tested. Which “Cisplatin Sensitization Assay” value did it give?
A: The value was “+++ (Compounds with a Cisplatin sensitization value of <0.02 μM are marked with “+++.”)”.

Q: Cc1ccnnc1-c1ccncc1NC(=O)c1c(N)nn2cc(F)cnc12 [I-C-33, 2-amino-6-fluoro-N-(4-(4-methylpyridazin-3-yl)pyridin-3-yl)pyrazolo[1,5-a]pyrimidine-3-carboxamide] was tested. Which “Cisplatin Sensitization Assay” value did it give?
A: Its value is “+ (Compounds with a Cisplatin sensitization value >0.2 μM but <5 μM are marked with “+.”)”.

Q: For CN(C)CCNC(=O)C1CCN(c2c(F)cncc2NC(=O)c2c(N)nn3cc(F)cnc23)CC1 [I-G-30, 2-amino-N-(4-(4-((2-(dimethylamino)ethyl)carbamoyl)piperidin-1-yl)-5-fluoropyridin-3-yl)-6-fluoropyrazolo[1,5-a]pyrimidine-3-carboxamide], which “Cisplatin Sensitization Assay” value is on record?
A: The value was “+++ (Compounds with a Cisplatin sensitization value of <0.02 μM are marked with “+++.”)”.

Q: For Nc1nn2cc(F)cnc2c1C(=O)Nc1cncc(F)c1N1CCC(C(=O)N2CCC(N3CCC3)CC2)CC1 [I-G-68, 2-amino-N-(4-(4-(4-(azetidin-1-yl)piperidine-1-carbonyl)piperidin-1-yl)-5-fluoropyridin-3-yl)-6-fluoropyrazolo[1,5-a]pyrimidine-3-carboxamide], which “Cisplatin Sensitization Assay” value is on record?
A: Its value is “+++ (Compounds with a Cisplatin sensitization value of <0.02 μM are marked with “+++.”)”.

Q: How did the “Cisplatin Sensitization Assay” value turn out when Nc1nn2cc(F)cnc2c1C(=O)Nc1cncc(F)c1N1CCC(CN2CCOCC2)CC1 [I-N-149, 2-amino-6-fluoro-N-(5-fluoro-4-(4-(morpholinomethyl)piperidin-1-yl)pyridin-3-yl)pyrazolo[1,5-a]pyrimidine-3-carboxamide] was run?
A: Its value is “+++ (Compounds with a Cisplatin sensitization value of <0.02 μM are marked with “+++.”)”.

Q: How did the “Cisplatin Sensitization Assay” value turn out when N#CCc1cnc2c(C(=O)Nc3cnccc3OC3CCCNC3)c(N)nn2c1 (racemic) [I-O-2, (R,S)-2-amino-6-(cyanomethyl)-N-(4-(piperidin-3-yloxy)pyridin-3-yl)pyrazolo[1,5-a]pyrimidine-3-carboxamide] was run?
A: The value was “++ (Compounds with a Cisplatin sensitization value >0.02 μM but <0.2 μM are marked with “++.”)”.

Q: With Nc1nn2cc(Cl)cnc2c1C(=O)Nc1cnccc1OC1CNC1 [I-O-73, 2-amino-N-(4-(azetidin-3-yloxy)pyridin-3-yl)-6-chloropyrazolo[1,5-a]pyrimidine-3-carboxamide] as the molecule, how does the “Cisplatin Sensitization Assay” value read?
A: Its value is “+ (Compounds with a Cisplatin sensitization value >0.2 μM but <5 μM are marked with “+.”)”.

Q: How did the “Cisplatin Sensitization Assay” value turn out when Nc1nn2cc(F)cnc2c1C(=O)Nc1cnccc1OC1CCS(=O)(=O)CC1 [I-O-45, 2-amino-N-(4-((1,1-dioxidotetrahydro-2H-thiopyran-4-yl)oxy)pyridin-3-yl)-6-fluoropyrazolo[1,5-a]pyrimidine-3-carboxamide] was run?
A: The value was “+++ (Compounds with a Cisplatin sensitization value of <0.02 μM are marked with “+++.”)”.

Q: With Nc1nn2cc(F)cnc2c1C(=O)Nc1cnccc1-n1ccnc1C(F)(F)F [I-N-219, 2-amino-6-fluoro-N-(4-(2-(trifluoromethyl)-1H-imidazol-1-yl)pyridin-3-yl)pyrazolo[1,5-a]pyrimidine-3-carboxamide] as the molecule, how does the “Cisplatin Sensitization Assay” value read?
A: Its value is “+++ (Compounds with a Cisplatin sensitization value of <0.02 μM are marked with “+++.”)”.

Q: With CN1CCN(S(=O)(=O)C2CCN(c3c(F)cncc3NC(=O)c3c(N)nn4cc(F)cnc34)CC2)CC1 [I-N-166, 2-amino-6-fluoro-N-(5-fluoro-4-(4-((4-methylpiperazin-1-yl)sulfonyl)piperidin-1-yl)pyridin-3-yl)pyrazolo[1,5-a]pyrimidine-3-carboxamide] as the molecule, how does the “Cisplatin Sensitization Assay” value read?
A: The value was “+++ (Compounds with a Cisplatin sensitization value of <0.02 μM are marked with “+++.”)”.

Q: Nc1nn2cc(F)cnc2c1C(=O)Nc1cncc(F)c1N1CCN(C(=O)C2CCN(C3COC3)CC2)CC1 [I-N-211, 2-amino-6-fluoro-N-(5-fluoro-4-(4-(1-(oxetan-3-yl)piperidine-4-carbonyl)piperazin-1-yl)pyridin-3-yl)pyrazolo[1,5-a]pyrimidine-3-carboxamide] was tested. Which “Cisplatin Sensitization Assay” value did it give?
A: The value was “++ (Compounds with a Cisplatin sensitization value >0.02 μM but <0.2 μM are marked with “++.”)”.

Q: With CN1CCN(c2c(F)cncc2NC(=O)c2c(N)nn3cc(CC#N)cnc23)CC1 [I-N-80, 2-amino-6-(cyanomethyl)-N-(5-fluoro-4-(4-methylpiperazin-1-yl)pyridin-3-yl)pyrazolo[1,5-a]pyrimidine-3-carboxamide] as the molecule, how does the “Cisplatin Sensitization Assay” value read?
A: Its value is “++ (Compounds with a Cisplatin sensitization value >0.02 μM but <0.2 μM are marked with “++.”)”.

Q: For Nc1nn2cc(Cl)cnc2c1C(=O)Nc1cnccc1O[C@@H]1CCNC1 [I-O-77, (R)-2-amino-6-chloro-N-(4-(pyrrolidin-3-yloxy)pyridin-3-yl)pyrazolo[1,5-a]pyrimidine-3-carboxamide], which “Cisplatin Sensitization Assay” value is on record?
A: Its value is “++ (Compounds with a Cisplatin sensitization value >0.02 μM but <0.2 μM are marked with “++.”)”.

Q: With N#C[C@@H]1CCN(c2c(Cl)cncc2NC(=O)c2c(N)nn3cc(F)cnc23)C1 [I-N-285, (R)-2-amino-N-(5-chloro-4-(3-cyanopyrrolidin-1-yl)pyridin-3-yl)-6-fluoropyrazolo[1,5-a]pyrimidine-3-carboxamide] as the molecule, how does the “Cisplatin Sensitization Assay” value read?
A: Its value is “++ (Compounds with a Cisplatin sensitization value >0.02 μM but <0.2 μM are marked with “++.”)”.

Q: How did the “Cisplatin Sensitization Assay” value turn out when Cc1nnccc1-c1ccncc1NC(=O)c1c(N)nn2cc(F)cnc12 [I-C-31, 2-amino-6-fluoro-N-(4-(3-methylpyridazin-4-yl)pyridin-3-yl)pyrazolo[1,5-a]pyrimidine-3-carboxamide] was run?
A: Its value is “+++ (Compounds with a Cisplatin sensitization value of <0.02 μM are marked with “+++.”)”.

Q: How did the “Cisplatin Sensitization Assay” value turn out when Cc1nc(C)n(-c2ccncc2NC(=O)c2c(N)nn3cc(F)cnc23)n1 [I-N-218, 2-amino-N-(4-(3,5-dimethyl-1H-1,2,4-triazol-1-yl)pyridin-3-yl)-6-fluoropyrazolo[1,5-a]pyrimidine-3-carboxamide] was run?
A: Its value is “+ (Compounds with a Cisplatin sensitization value >0.2 μM but <5 μM are marked with “+.”)”.

Q: How did the “Cisplatin Sensitization Assay” value turn out when Cc1ccncc1NC(=O)c1c(N)nn2cc(F)cnc12 [I-C-4, 2-amino-6-fluoro-N-(4-methylpyridin-3-yl)pyrazolo[1,5-a]pyrimidine-3-carboxamide] was run?
A: The value was “++ (Compounds with a Cisplatin sensitization value >0.02 μM but <0.2 μM are marked with “++.”)”.

Q: For COC1CN(C2CCN(c3ccncc3NC(=O)c3c(N)nn4cc(Cl)cnc34)CC2)C1 [I-N-107, 2-amino-6-chloro-N-(4-(4-(3-methoxyazetidin-1-yl)piperidin-1-yl)pyridin-3-yl)pyrazolo[1,5-a]pyrimidine-3-carboxamide], which “Cisplatin Sensitization Assay” value is on record?
A: Its value is “+++ (Compounds with a Cisplatin sensitization value of <0.02 μM are marked with “+++.”)”.

Q: With Nc1nn2cc(F)cnc2c1C(=O)Nc1cncc(F)c1N1CCC(n2ccnc2)CC1 [I-N-288, N-(4-(4-(1H-imidazol-1-yl)piperidin-1-yl)-5-fluoropyridin-3-yl)-2-amino-6-fluoropyrazolo[1,5-a]pyrimidine-3-carboxamide] as the molecule, how does the “Cisplatin Sensitization Assay” value read?
A: Its value is “+++ (Compounds with a Cisplatin sensitization value of <0.02 μM are marked with “+++.”)”.

Q: Nc1nn2cc(Cl)cnc2c1C(=O)Nc1cnccc1-n1ccnc1 [I-N-29, N-(4-(1H-imidazol-1-yl)pyridin-3-yl)-2-amino-6-chloropyrazolo[1,5-a]pyrimidine-3-carboxamide] was tested. Which “Cisplatin Sensitization Assay” value did it give?
A: Its value is “++ (Compounds with a Cisplatin sensitization value >0.02 μM but <0.2 μM are marked with “++.”)”.

Q: Which “Cisplatin Sensitization Assay” value does the source give for CN1CCN(c2c(C#N)cncc2NC(=O)c2c(N)nn3cc(F)cnc23)CC1 [I-N-113, 2-amino-N-(5-cyano-4-(4-methylpiperazin-1-yl)pyridin-3-yl)-6-fluoropyrazolo[1,5-a]pyrimidine-3-carboxamide] here?
A: The value was “+ (Compounds with a Cisplatin sensitization value >0.2 μM but <5 μM are marked with “+.”)”.
